Source: ChEMBL document CHEMBL3399952, “Design and synthesis of novel anti-tuberculosis agents from the celecoxib pharmacophore” (Bioorg Med Chem, 2015)
The source made the active and inactive calls.

What was measured:
Type in all cases: functional, organism-based
[1] = test system: Mycobacterium tuberculosis; experiment: Antimycobacterial activity against isoniazid, ethambutol-resistant Mycobacterium tuberculosis Strain 11J assessed as reduction in growth measured at 2.5 uM after 90 hrs by optical density-based broth culture growth assay
[2] = test system: Mycobacterium tuberculosis; experiment: Antimycobacterial activity against rifampicin, streptomycin-resistant Mycobacterium tuberculosis Strain 13B assessed as reduction in growth measured at 2.5 uM after 90 hrs by optical density-based broth culture growth assay
[3] = test system: Mycobacterium tuberculosis; experiment: Antimycobacterial activity against isoniazid, streptomycin-resistant Mycobacterium tuberculosis Strain 13E assessed as reduction in growth measured at 2.5 uM after 90 hrs by optical density-based broth culture growth assay

Measured: inhibition

CNC(=O)CCc1cc(-c2ccc(-c3ccc(C(F)(F)F)cc3)cc2)nn1-c1ccc(NC(=O)c2ccncc2)cc1
active: all assays above

CNC(=O)CCc1cc(-c2ccc(-c3ccc(C(F)(F)F)cc3)cc2)n(-c2ccc(NC(=O)c3ccnc(C)c3)cc2)n1
active: all assays above

CNC(=O)CCc1cc(-c2ccc(-c3ccc(C(F)(F)F)cc3)cc2)n(-c2ccc(NC(=O)c3ccncc3)cc2)n1
active: all assays above

CNC(=O)CCc1cc(-c2ccc(-c3ccc(C(F)(F)F)cc3)cc2)n(-c2ccc(NC(=O)c3ccncc3Cl)cc2)n1
active: all assays above

CNC(=O)CCc1cc(-c2ccc(-c3ccc(C(F)(F)F)cc3)cc2)n(-c2ccc(NC(=O)c3cn(C)cn3)cc2)n1
active: all assays above

CNC(=O)CCc1cc(-c2ccc(-c3ccc(C(F)(F)F)cc3)cc2)n(-c2ccc(NC(=O)c3ccc(N)cc3)cc2)n1
active: all assays above
